According to ChEMBL document CHEMBL4699406, “Reversing binding sensitivity to A147T translocator protein” (RSC Med Chem, 2020):
Active and inactive are the calls of the source. The calls are words filed in the database; no cut-off is given here.

Key:
Translocator protein = Translocator protein (Homo sapiens, UniProt P30536); test: Displacement of [3H]PK11195 from wild-type human TSPO expressed in HEK293 cell membranes after 90 mins by scintillation counting method; design: species or system Cell membrane
Translocator protein, sequence (P30536 whole entry): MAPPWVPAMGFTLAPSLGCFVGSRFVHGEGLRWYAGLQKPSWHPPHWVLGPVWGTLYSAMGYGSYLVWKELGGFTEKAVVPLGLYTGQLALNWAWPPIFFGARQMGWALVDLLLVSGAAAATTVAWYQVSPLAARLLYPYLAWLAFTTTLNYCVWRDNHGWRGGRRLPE

Homo sapiens = organism: Homo sapiens; test: Selectivity index, ratio of Ki for human TSPO A147T mutant expressed in HEK293 cell membranes to Ki for human TSPO expressed in HEK293 cell membranes; format: cell-based

Row | Ki (Translocator protein) [nM] | SMILES | Ratio Ki (Homo sapiens)
1 | 3060 | CCN(CC)C(=O)c1nc2ccccc2n1Cc1ccc(OC)cc1 | > 3.3
2 | 2070 | C#CCN(C)C(=O)c1cc2cc(NC(C)=O)ccc2n1Cc1ccc(OC)cc1 | 1.4
3 | > 10000 | CCN(CC)C(=O)c1cc2cc(C)ccc2n1Cc1cn[nH]n1 | inactive
4 | > 10000 | CCN(CC)C(=O)c1cc2cc(C)ccc2n1Cc1ccc(OCc2ccccc2)cc1 | inactive
5 | > 10000 | CCN(CC)C(=O)c1nc2ccccc2n1Cc1ccc(OC)nc1 | inactive
6 | 208 | CCN(CC)C(=O)Cn1c(-c2ccc(OC)cc2)nc2c(C)cc(C)cc21 | 4.2
7 | 377 | CC(=O)N(Cc1ccc(OCc2ccccc2)cc1)c1cc(C)cc(C)c1 | 2
8 | 1500 | C#CCN(C)C(=O)c1cc2cc(NS(C)(=O)=O)ccc2n1Cc1ccc(OC)cc1 | 0.5
9 | 823 | CC(=O)N(Cc1ccc(OC(C)C)cc1)c1cc(C)cc(C)c1 | 3.8
10 | 3280 | C#CCN(C)C(=O)c1nc2ccccc2n1Cc1ccc(OC)cc1 | > 3
11 | 1010 | CCN(CC)C(=O)CN(Cc1ccccc1)c1cc(C)cc(C)c1 | 4.2
12 | 1290 | CCN(CC)C(=O)CN(Cc1ccc(OCCF)cc1)c1cc(C)cc(C)c1 | > 7.7
13 | 500 | COc1ccc(CN(C(C)=O)c2cc(C)cc(C)c2)cc1 | 5.6
14 | > 10000 | C#CCN(C)C(=O)c1cc2cc(C)ccc2n1Cc1ccc(OC)nc1 | 0.1
15 | 2240 | CCN(CC)C(=O)CN(Cc1ccc(OC(C)C)cc1)c1cc(C)cc(C)c1 | > 4.5
16 | 433 | CCN(CC)C(=O)CN(Cc1ccc(OCc2ccccc2)cc1)c1cc(C)cc(C)c1 | 4.2
17 | > 10000 | CCN(CC)C(=O)c1nc2ccccc2n1Cc1ccc(Cl)cc1 | < 0.3
18 | > 10000 | CCN(CC)C(=O)c1cc2cc(C)ccc2n1Cc1ccc(O)cc1 | inactive
19 | 114 | CCN(CC)C(=O)Cn1c(-c2ccc(OC)cc2)cc2c(C)cc(C)cc21 | 5.7
20 | > 10000 | C#CCN(C)C(=O)c1nc2ccccc2n1Cc1ccc(Cl)cc1 | inactive
21 | 275 | CC(=O)N(Cc1ccccc1)c1cc(C)cc(C)c1 | 4.6
22 | 275 | CC(=O)N(Cc1ccc(OCCF)cc1)c1cc(C)cc(C)c1 | 14.3
23 | > 10000 | CCN(CC)C(=O)c1nc2ccccc2n1Cc1ccccc1 | inactive
24 | 1200 | CCN(CC)C(=O)CN(Cc1ccc(OC)cc1)c1cc(C)cc(C)c1 | 3.5

Row | SMILES | Ki (Translocator protein) [nM] | Ratio Ki (Homo sapiens)
25 | CN(Cc1ccccc1)C(=O)c1nc2ccccc2n1Cc1ccc(Cl)cc1 | > 10000 | inactive
